The source of these data is patent publication US20230303561A1, “PYRIMIDINONE DERIVATIVE, PREPARATION METHOD THEREOF AND USE THEREOF IN RESISTING MYCOBACTERIUM TUBERCULOSIS INFECTION” (INSTITUTE OF MEDICINAL BIOTECHNOLOGY, CHINESE ACADEMY OF …, priority 2020, published 2023).

In general, MIC refers to the least concentration at which growth counts as inhibited.

Values after ≈ are worked out from the molar mass of the structure shown.

The test deals with MTB H37Rv. The experiment in a line: Bacteriostasis experiment: MIC in 96-well plate, two-fold dilution method. In kind it is cell-based, Mycobacterium tuberculosis.

As to `CCCCCCCOc1ccc(C2CC(=O)Nc3nc(SCCC)[nH]c(=O)c32)cc1` (centres unmarked) [LSL-11-39, 2-propylmercapto-5-(4-heptoxyphenyl)-5,6-dihydropyrido[2,3-d]pyrimidin-4,7(3H,8H)-dione], the “anti-mycobacterium tuberculosis MIC compared with the positive control drug INH” value (MTB H37Rv, statement on Table 1 data) is “equivalent to that of the positive control drug INH”. Moreover, for the setting “Mycobacterium tuberculosis, ATCC 27294 / H37Rv, 240 h, read-out: Inhibitory activity against Mycobacterium tuberculosis, MIC, MTB H37Rv”, the MIC came out at 0.625 µg/mL (≈ 1.45 µM).
